Marks after values point to notes of the source that are not given here.
Columns and labels:
[1] = Population pharmacokinetic analysis of ritonavir plasma concentrations (CHAPAS-4 pharmacokinetic sub-study, week 6, NONMEM)
Experimental: The trial included children with HIV from Zambia, Uganda, and Zimbabwe, aged 3–15 years, weighing at least 14 kg (Table 1), receiving abacavir-, zidovudine-, or stavudine-containing NRTI backbone and failing on ART according to WHO criteria (confirmed viral load >1,000 copies/mL after adherence counseling or CD4 criteria for failure or clinical criteria for failure). A nested pharmacokinetic sub-study was conducted within the CHAPAS-4 trial. […] Written informed consent was given by parents/caregivers, and local and national ethics committees approved the main trial and nested pharmacokinetic sub-study.
The dose depended on the companion PI (Table 2). NRTI backbones were also dosed according to weight bands. Children were followed up for 96 weeks. Pharmacokinetic blood samples were collected after week 6 of study treatment. Samples were collected at pre-dose, 0.5 (only for those on TAF/FTC), 1, 2, 4, 6, 8, 12, and 24 hours post-dose, and plasma was stored at −80°C. On the day of pharmacokinetic blood sampling, study drugs were administered under direct observation, with food (breakfast with 5% fat, ~250 kCal). All non-ART co-medications were taken at least 2 hours after study drugs.
R v4.2.2 via RStudio (Posit Public Benefit Corporation) and Pirana v2.9.9 (Certara, Inc.) were utilized to visualize and process the data, and Perl Speaks NONMEM v5.2.6 (Department of Pharmacy, Uppsala University) was used for automation of the analysis processes ([17]).
We tested one- and two-compartment disposition models and several absorption models (sequential zero- and/or first-order, with lag time or transit compartments). Simple first-order elimination as well as first-pass and saturable elimination through a liver compartment were tested. We included between-subject variability (BSV) on disposition parameters and between-occasion variability (BOV) on absorption parameters, assuming a log-normal distribution. Combined additive and proportional error models to describe residual unexplained variability were evaluated. Samples with undetectable drug concentrations were treated as censored at the limit of detection (LOD), which was imputed as 30% of the LLOQ ([19]), and handled using a modified version of the M6 method by Beal ([20]). The undetectable (i.e., censored) values were imputed to half of the LOD value (LOD/2), and the additive error was inflated by LOD/2. If a series of undetectable values was present, the value closest to the peak concentration was retained, while all trailing values were excluded from the model fit but retained for simulation-based diagnostics.
(§1) Covariates were maintained if they reached statistical significance of P < 0.05 on forward addition and P < 0.01 on backward elimination. […] The performance of intermediate and final models was assessed both numerically and using goodness of fit plots, and by simulation-based diagnostics such as visual predictive checks (VPC) ([23]). Parameter precision was evaluated using the sampling importance resampling (SIR) procedure ([24]). The effect of covariates on the simulated area under the curve from 0 to 24 hours (AUC0–24 h) for all study arms was visualized using a forest plot based on 1,000 simulations accounting for parameter uncertainty ([25]).

[2] = Covariate effects forest plot of simulated ritonavir AUC0–24 h (1,000 simulations accounting for parameter uncertainty); parameters: species or system African children with HIV; conditions: reference a child of 26 kg receiving 100 mg of ritonavir in combination with darunavir
Experimental: as §1

[3] = parameters: method as in PMID 19210693; conditions: cross-over pharmacokinetic study; cited from earlier work

## CC(C)c1nc(CN(C)C(=O)N[C@H](C(=O)N[C@@H](Cc2ccccc2)C[C@H](O)[C@H](Cc2ccccc2)NC(=O)OCc2cncs2)C(C)C)cs1 [ritonavir]
[1]; atazanavir/ritonavir once daily, weight band 14–19.9 kg, ATV/r 200/75 mg, 3 out of 12 children got 100 mg ritonavir instead of 75 mg
  Observed Cmax of ritonavir, median (interquartile range): 2.68 (2.33–3.25)^a mg/L
[1]; darunavir/ritonavir once daily, weight band 20–24.9 kg, DRV/r 600/100 mg
  Observed Cmax of ritonavir, median (interquartile range): 1.27 (1.10–1.52) mg/L
[1]; darunavir/ritonavir once daily, weight band ≥35 kg, DRV/r 800/100 mg
  Observed Cmax of ritonavir, median (interquartile range): 0.81 (0.53–1.04) mg/L
[1]; human, in vivo
  Between-occasion variability, Bioavailability: 40.1 (35.2–46.0) %
  Between-occasion variability, First-order absorption rate constant: 114 (90.0–141) %
  Between-occasion variability, Lag time: 62.0 (54.5–70.2) %
  Between-occasion variability, Zero-order rate of absorption: 52.5 (42.7–63.0) %
  Between-subject variability, Clearance: 13.1 (10.2–15.8) %
  Extra variability for unobserved doses: 2.14 (1.53–2.42) fold change
  First-order absorption rate constant, typical value (95% confidence interval): 1.16 (0.893–1.89) 1/h
  Lag time, typical value (95% confidence interval): 0.981 (0.934–1.06) h
  Zero-order absorption duration, typical value (95% confidence interval): 2.45 (2.05–2.80) h
[1]; human, in vivo, po
  Central volume of distribution, typical value (95% confidence interval): 54.5 (48.9–60.4) L
  Clearance, typical value (95% confidence interval): 10.5 (9.22–11.9) L/h
  Cmax: 1320 ng/mL
  Intercompartmental clearance, typical value (95% confidence interval): 1.19 (0.851–1.58) L/h
  Peripheral volume of distribution, typical value (95% confidence interval): 134 (38.8–330) L
[1]; human, in vivo, po, 100 mg, Observed Cmax of ritonavir, median (interquartile range)
  Cmax: 2760 ng/mL
[1]; lopinavir/ritonavir twice daily, weight band 20–24.9 kg, daily dose LPV/r 400/100 mg
  Model-based AUC0–24 h of ritonavir, median (interquartile range): 10.3 (7.30–12.8) mg·h/L
[1]; lopinavir/ritonavir twice daily, weight band ≥35 kg, daily dose LPV/r 800/200 mg
  Observed Cmax of ritonavir, median (interquartile range): 0.80 (0.47–1.42) mg/L
[2]
  Increase of ritonavir AUC0–24 h by atazanavir: 99.0%
[3]
  Lowering of plasma AUC of ritonavir by darunavir: 14%

Reference: article PMC12587601 (Antimicrobial Agents and Chemotherapy, 2025)
